Reference: patent US20090047243A1, “COMBINATIONS FOR THE TREATMENT OF B-CELL PROLIFERATIVE DISORDERS” (priority 2007, published 2009)

What was measured:
Test in all cases: Anti-proliferation assay (ATPLite, 72 h)
[1] = test system: human multiple myeloma cells (MM.1S); assay type: cell-based; set-up: key to synergy score / synergy (score), PDEi × HE-NECA: S = lnfX·lnfY·ΣIdata(Idata−ILoewe), volume over Loewe additivity
Experimental: (§1) ANBL6 and INA-6 culture media was also supplemented with 10 ng/ml IL-6. […] MM.1S, MM.1R, OCI-ly10, Karpas 422, and SU-DHL6 cells were provided by the Dana Farber Cancer Institute. H929, RPMI-8226, GA-10, and Farage cells were from ATCC (Cat #'s CCL-155, CRL-9068, CRL-2392 and CRL-2630 respectively). MOLP-8, EJM, KSM-12-PE, and OPM2 were from DSMZ. The ANBL6 and INA-6 cell lines were provided by the M. D. Anderson Cancer Research Center. Compounds were prepared in DMSO at 1000× the highest desired concentration. Master plates were generated consisting of serially diluted compounds in 2- or 3-fold dilutions in 384-well format. For single agent dose response curves, the master plates consisted of 9 individual compounds at 12 concentrations in 2- or 3-fold dilutions. For combination matrices, master plates consisted of individual compounds at 6 or 9 concentrations at 2- or 3-fold dilutions. […] To obtain combination data, two master plates were diluted into the assay plates. […] Thirty microliters of ATPLite (Perkin Elmer) at room temperature was then added to each well. […] Measurements were taken at the top of the well using a luminescence aperture and a read time of 0.1 seconds per well. The percent inhibition (% I) for each well was calculated using the following formula: % I=[(avg. untreated wells-treated well)/(avg. untreated wells)]×100. […] Negative inhibition values result from local variations in treated wells as compared to untreated wells. […] The uncertainty of each fitted parameter was estimated from the range over which the change in reduced chi-squared was less than one, or less than minimum reduced chi-squared if that minimum exceeded one, to allow for underestimated σI errors. Single agent curve data were used to define a dilution series for each compound to be used for combination screening in a 6×6 matrix format. […] The Loewe additivity model was used to quantify combination effects. […] A “Synergy Score” was also used, where the Synergy Score S=log fX log fY ΣIdata(Idata-ILoewe), summed over all non-single-agent concentration pairs, and where log fX,Y is the natural logarithm of the dilution factors used for each single agent. This effectively calculates a volume between the measured and Loewe additive response surfaces, weighted towards high inhibition and corrected for varying dilution factors. An uncertainty σS was calculated for each synergy score, based on the measured errors for the Idata values and standard error propagation.

[2] = test system: human multiple myeloma cells (MM.1R); assay type: cell-based; set-up: key: S = lnfX·lnfY·ΣIdata(Idata−ILoewe), volume over Loewe additivity
Experimental: as §1

[3] = test system: RPMI-8226 multiple myeloma cell line; assay type: cell-based, human; set-up: key: S = lnfX·lnfY·ΣIdata(Idata−ILoewe), volume over Loewe additivity
Experimental: as §1

[4] = test system: H929 multiple myeloma cell line; assay type: cell-based, human; set-up: key: S = lnfX·lnfY·ΣIdata(Idata−ILoewe), volume over Loewe additivity
Experimental: as §1

[5] = PDE inhibitor crossed with (S) ENBA, H929
[6] = PDE inhibitor crossed with ADAC, H929
[7] = PDE inhibitor crossed with Chloro-IB-MECA, H929
[8] = PDE inhibitor crossed with HE-NECA, H929
[9] = PDE inhibitor crossed with (S) ENBA, MM.1S
[10] = PDE inhibitor crossed with ADAC, MM.1S
[11] = PDE inhibitor crossed with Chloro-IB-MECA, MM.1S
[12] = PDE inhibitor crossed with HE-NECA, MM.1S
[13] = MM.1S, compared among four adenosine receptor antagonists

**Q.** For `COc1cc2c(cc1OC)-c1cc(=Nc3c(C)cc(C)cc3C)n(C)c(=O)n1CC2.NCCNC(=O)Cc1ccc(NC(=O)Cc2ccc(Nc3ncnc4c3ncn4[C@@H]3O[C@H](CO)[C@@H](O)[C@H]3O)cc2)cc1` [ADAC + Trequinsin], which “percent inhibition of ATP in MM.1S cells” value ([1]; 10 ng/mL IL-6, ADAC 1.17 μM, Trequinsin conc. (μM)) is on record?
**A.** 94%

**Q.** And the “percent inhibition of ATP in MM.1S cells” value ([1]; 10 ng/mL IL-6, ADAC 3.51 μM, Trequinsin conc. (μM))?
**A.** 93%

**Q.** What about the “percent inhibition of ATP in MM.1S cells” value ([1]; 10 ng/mL IL-6, ADAC 10.5 μM, Trequinsin conc. (μM)) of the same compound?
**A.** 93%

**Q.** What about the “percent inhibition of ATP in MM.1S cells” value ([1]; 10 ng/mL IL-6, ADAC 31.6 μM, Trequinsin conc. (μM)) of the same compound?
**A.** 93%

**Q.** What about the “percent inhibition of ATP in MM.1S cells” value ([1]; 10 ng/mL IL-6, ADAC […], Trequinsin conc. (μM)) of the same compound?
**A.** 95%

**Q.** What does the source list for `CNC(=O)[C@H]1O[C@@H](n2cnc3c(NCc4cccc(I)c4)nc(Cl)nc32)[C@H](O)[C@@H]1O.COc1cc2c(cc1OC)-c1cc(=Nc3c(C)cc(C)cc3C)n(C)c(=O)n1CC2` [CI-IB-MECA + Trequinsin]?
**A.** percent inhibition of ATP in MM.1S cells ([1]; after addition of 174 nM DPCPX, CI-IB-MECA 2.96 μM, Trequinsin conc. (μM)): 94%; percent inhibition of ATP in MM.1S cells ([1]; no adenosine receptor antagonist added, CI-IB-MECA 1.48 μM, Trequinsin conc. (μM)): 93%

**Q.** For `CNC(=O)[C@H]1O[C@@H](n2cnc3c(NCc4cccc(I)c4)nc(Cl)nc32)[C@H](O)[C@@H]1O.COc1cc2c(cc1OC)-c1cc(=Nc3c(C)cc(C)cc3C)n(C)c(=O)n1CC2` [Cl-IB-MECA + Trequinsin], which “percent inhibition of ATP in MM.1S cells” value ([1]; after addition of 170 nM MRS 1523, Cl-IB-MECA 2.96 μM, Trequinsin conc. (μM)) is on record?
**A.** 93%

**Q.** With `CCCn1c(=O)c2[nH]c(C3CCCC3)nc2n(CCC)c1=O` [DPCPX, 8-cyclopentyl-1,3-dipropylxanthine] as the compound, how does the inhibition at 0.174 µM ([1]; Homo sapiens, MM1.S, after addition of 174 nM DPCPX, CI-IB-MECA 0 μM, Trequinsin conc. (μM), read-out: Percent inhibition of ATP in MM.1S cells) read?
**A.** -7.5%

**Q.** For `OCCN(CCO)c1nc(N2CCCCC2)c2nc(N(CCO)CCO)nc(N3CCCCC3)c2n1` [Dipyridamole, 2-{[9-(bis(2-hydroxyethyl)amino)-2,7-bis(1-piperidyl)-3,5,8,10-tetrazabicyclo[4.4.0]deca-2,4,7,9,11-pentaen-4-yl]-(2-hydroxyethyl)amino}ethanol], which synergy score ([2]; in combination with adenosine receptor agonist ADAC, MM.1R) is on record?
**A.** 1.34

**Q.** And the synergy score ([3]; in combination with adenosine receptor agonist ADAC, RPMI-8226)?
**A.** 0.62

**Q.** And the synergy score [4, 5]?
**A.** 0.26

**Q.** And the synergy score [4, 6]?
**A.** 2.05

**Q.** What about the synergy score [4, 7] of the same compound?
**A.** 0.08

**Q.** What about the synergy score [4, 8] of the same compound?
**A.** 0.13

**Q.** And the synergy score ([4]; in combination with adenosine receptor agonist ADAC, H929)?
**A.** 2.05

**Q.** What about the synergy score [1, 9] of the same compound?
**A.** 0.17

**Q.** And the synergy score [1, 10]?
**A.** 1.18

**Q.** And the synergy score [1, 11]?
**A.** 0.20

**Q.** What about the synergy score [1, 12] of the same compound?
**A.** 0.08

**Q.** And the synergy score ([1]; in combination with adenosine receptor agonist ADAC, MM.1S)?
**A.** 1.18

**Q.** How did the “percent inhibition of ATP in MM.1S cells” value ([1]; 10 ng/mL IL-6, Papaverine 20.7 μM, HE-NECA conc. (μM)) turn out when `CCCCC#Cc1nc(N)c2ncn([C@@H]3O[C@H](C(=O)NCC)[C@@H](O)[C@H]3O)c2n1.COc1ccc(Cc2nccc3cc(OC)c(OC)cc23)cc1OC` [HE-NECA + Papaverine] was run?
**A.** 97%

**Q.** And the “percent inhibition of ATP in MM.1S cells” value ([1]; no IL-6, Papaverine 20.7 μM, HE-NECA conc. (nM))?
**A.** 95%

**Q.** For `CCCCC#Cc1nc(N)c2ncn([C@@H]3O[C@H](C(=O)NCC)[C@@H](O)[C@H]3O)c2n1.COc1cc2c(cc1OC)-c1cc(=Nc3c(C)cc(C)cc3C)n(C)c(=O)n1CC2` [HE-NECA + Trequinsin], which “percent inhibition of ATP in MM.1S cells” value ([1]; 10 ng/mL IL-6, Trequinsin 3.39 μM, HE-NECA conc. (nM)) is on record?
**A.** 94%

**Q.** What about the “percent inhibition of ATP in MM.1S cells” value ([1]; 10 ng/mL IL-6, Trequinsin 30.5 μM, HE-NECA conc. (nM)) of the same compound?
**A.** 100%

**Q.** What about the “percent inhibition of ATP in MM.1S cells” value ([1]; no IL-6, Trequinsin 30.5 (unit not given), HE-NECA conc. (nM)) of the same compound?
**A.** 98%

**Q.** How did the synergy score ([2]; in combination with adenosine receptor agonist CGS-21680, MM.1R) turn out when `CC(C)C(=O)c1c(C(C)C)nn2ccccc12` [Ibudilast, 1-(2-isopropyl-pyrazolo[1,5-a]pyridine-3-yl)-2-methylpropan-1-one] was run?
**A.** 2.29

**Q.** What about the synergy score ([2]; in combination with adenosine receptor agonist regadenoson, MM.1R) of the same compound?
**A.** 1

**Q.** What about the synergy score ([3]; in combination with adenosine receptor agonist CGS-21680, RPMI 8226) of the same compound?
**A.** 0.47

**Q.** And the synergy score ([3]; in combination with adenosine receptor agonist regadenoson, RPMI 8226)?
**A.** 0.29

**Q.** What about the synergy score [4, 5] of the same compound?
**A.** 0.21

**Q.** What about the synergy score [4, 6] of the same compound?
**A.** 1.04

**Q.** And the synergy score [4, 7]?
**A.** 0.32

**Q.** What about the synergy score [4, 8] of the same compound?
**A.** 0.32

**Q.** What about the synergy score ([4]; in combination with adenosine receptor agonist CGS-21680, H929) of the same compound?
**A.** 1.76

**Q.** What about the synergy score ([4]; in combination with adenosine receptor agonist regadenoson, H929) of the same compound?
**A.** 1.08

**Q.** And the synergy score [1, 9]?
**A.** 0.55

**Q.** And the synergy score [1, 10]?
**A.** 0.23

**Q.** What about the synergy score [1, 11] of the same compound?
**A.** 0.74

**Q.** What about the synergy score [1, 12] of the same compound?
**A.** 0.98

**Q.** What about the synergy score ([1]; in combination with adenosine receptor agonist CGS-21680, MM.1S) of the same compound?
**A.** 2.22

**Q.** What about the synergy score ([1]; in combination with adenosine receptor agonist regadenoson, MM.1S) of the same compound?
**A.** 0.37

**Q.** `CCCn1c(=O)c2[nH]c(-c3ccc(OCC(=O)Nc4ccc(C#N)cc4)cc3)nc2n(CCC)c1=O` [MRS 1574] was tested. Which inhibition at 0.175 µM ([1]; Homo sapiens, MM1.S, after addition of 175 nM MRS 1754, Cl-IB-MECA 0 μM, Trequinsin conc. (μM), read-out: Percent inhibition of ATP in MM.1S cells) did it give?
**A.** -13%

**Q.** How did the “blocking of chloro-IB-MECA antiproliferative activity” value ([1]; MM.1S, 72 h, antagonist SCH 58261 at 78 nM) turn out when `Nc1nc2c(cnn2CCc2ccccc2)c2nc(-c3ccco3)nn12` [SCH 58261] was run?
**A.** > 50%

**Q.** What about the “antagonist effect on (S)-ENBA inhibition of cell growth” value ([1]; MM.1S, 72 h, SCH 58261 78 nM, MRS 1523 183 nM, DPCPX 178 nM, MRS 1574 175 nM) of the same compound?
**A.** most active of the antagonists

**Q.** And the “blocking of chloro-IB-MECA antiproliferative activity” value ([1]; MM.1S, antagonist concentration increased 2-fold)?
**A.** > 70%

**Q.** And the “antagonist effect on chloro-IB-MECA crossed with trequinsin” value [1, 13]?
**A.** most active compound

**Q.** And the “antagonist effect on synergy of (S)-ENBA crossed with trequinsin” value [1, 13]?
**A.** most active compound

**Q.** `CCCc1nn(C)c2c(=O)[nH]c(-c3cc(S(=O)(=O)N4CCN(C)CC4)ccc3OCC)nc12` [Sildenafil] was tested. Which synergy score [4, 5] did it give?
**A.** 0.03

**Q.** And the synergy score [4, 6]?
**A.** 0.14

**Q.** What about the synergy score [4, 7] of the same compound?
**A.** 0.03

**Q.** What about the synergy score [4, 8] of the same compound?
**A.** 0

**Q.** And the synergy score [1, 9]?
**A.** 0

**Q.** And the synergy score [1, 10]?
**A.** 0

**Q.** And the synergy score [1, 11]?
**A.** 0

**Q.** And the synergy score [1, 12]?
**A.** 0

**Q.** Which results are given for `CCCOc1ccccc1-c1nc2nn[nH]c2c(=O)[nH]1` [Zaprinast]?
**A.** synergy score [4, 5]: 0.05; synergy score [4, 7]: 0.03; synergy score [4, 8]: 0.13; synergy score [1, 9]: 0.16; synergy score [1, 11]: 0.05; synergy score [1, 12]: 0.025

**Q.** With `C[C@@H]1C[C@H]2[C@@H]3CCC4=CC(=O)C=C[C@]4(C)[C@@]3(F)[C@@H](O)C[C@]2(C)[C@@]1(O)C(=O)CO` [dexamethasone] as the compound, how does the IC50 ([1]; Homo sapiens, MM1.S, 72 h, MM.1S, 72 h, +IL-6 (10 ng/ml)) read?
**A.** 61.7 nM

**Q.** What about the IC50 ([1]; Homo sapiens, MM1.S, 72 h, MM.1S, no IL-6) of the same compound?
**A.** 179 nM

**Q.** And the “change in IC50 when cultured in the presence of IL-6” value ([1]; MM.1S, 10 ng/ml IL-6 vs no IL-6)?
**A.** 2.9 fold
